Consider 15 compounds from patent US20200254041A1, “RAPID ONSET AND EXTENDED ACTION PLANT-BASED AND SYNTHETIC CANNABINOID FORMULATIONS” (RECEPTOR HOLDINGS, INC., priority 2017, published 2020).

Series [1] is described as follows: Cannabis/SNAC oral rat pharmacokinetic (PK) study. Format: in vivo. Particulars: rats; for AUC0-Tlast increase over the cannabis alone group / Cmax increase over the cannabis alone group: 500 mg/kg SNAC and 50 mg/kg cannabis extract vs 25 mg/kg cannabis alone; for AUC compared to the cannabis alone group: 25 mg/kg cannabis extract. The method, then:
Summary of cannabis/SNAC oral rat pharmacokinetic (PK) study.
Methods. Animals were dosed on Day 1 and a series of blood samples were collected over a period of 4 hours post dose for pharmacokinetic evaluation. Animals were euthanized following collection of their last blood sample.

The conditions of series [2]: cited from earlier work.
Series [3] deals with study participants. In words: Onset and duration of action of orally administered cannabis/SNAC formulation (200 mg SNAC) vs cannabis-only control; participant-reported euphoria/dysphoria. It counts as in vivo, human. The note with it: 200 mg SNAC in oral cannabis formulation. The method, then: This study was designed to assess the utility of SNAC in enabling a rapid-acting oral form of cannabis.
Selection of Participants. Six study participants were recruited to ingest cannabis formulations and record the onset, duration, and intensity of cannabis-induced euphoria and/or dysphoria.
(§1) Formulations. The selected cannabis concentrate is commercially available and was provided to participants in an ethanol solution. The concentrate contains 8 mg THC per dose. It was selected because it contains a high percentage of THC, which provides a noticeable effect on user-reported “euphoria”.
(§2) Methods. For the Control experiment, each participant mixed the cannabis concentrate with 15 ml (one tablespoon) of aqueous ethanol, and immediately swallowed the mixture.
(§3) For both the Control experiment and the Test experiment, each participant recorded the time of dose administration, the time of onset of euphoria and/or dysphoria, and the observed level of euphoria and/or dysphoria in fifteen minute intervals for five hours following administration of the cannabis dose. Euphoria and dysphoria were reported using a scale value, in a range from 1-10.

The subject of series [4] is study participants. As to the kind of experiment: Onset and duration of action of orally administered cannabis/SNAC formulation at a low SNAC dose (100 mg); participant-reported euphoria. Format: in vivo, human. The note with it: 100 mg SNAC in oral cannabis formulation. The method, then: This study was designed to assess the utility of SNAC in enabling a rapid-acting oral form of cannabis at a low dose.
Selection of Participants. Three study participants were recruited to ingest cannabis formulations and record the onset, duration, and intensity of cannabis-induced euphoria and/or dysphoria.
as §1, §2, §3

The conditions of series [5]: cited from earlier work. This is another data set of the same source.
The mark [6] stands for this setting: 25 mg/kg cannabis extract with SNAC at either 250 or 500 mg/kg.

Usually aqueous solubility stands for the concentration that dissolves in the medium under given conditions.

Converted amounts (≈) assume the structure as drawn.

Consider `C=C(C)[C@@H]1CCC(C)=C[C@H]1c1c(O)cc(CCCCC)cc1O` [CBD, cannabidiol], for which the “Cmax increase over cannabis alone” value is 2.9 fold in series [1] (25 mg/kg cannabis extract with SNAC 250 mg/kg), 2.8 fold in series [1] (25 mg/kg cannabis extract with SNAC 500 mg/kg) and 2.8 fold in series [1] (setting [6]). Further, in series [1], the “AUC0-Tlast increase over the cannabis alone group” value is 22.1 fold. The “Cmax increase over the cannabis alone group” value in series [1] turned out to be 14.2 fold. In addition, in series [2], the “water solubility (in words)” value was “very low or no solubility in water”.

For the compound `COc1cc(CNC(=O)CCCC/C=C/C(C)C)ccc1O` [Capsaicin], the “water solubility (in words)” value in series [2] is reported as “low water solubility”.

`COc1cc(/C=C/C(=O)CC(=O)/C=C/c2ccc(O)c(OC)c2)ccc1O` [Curcumin]: the aqueous solubility in series [2] was under 0.1 mg/mL.

In the case of `C=CCc1ccc(O)c(OC)c1` [Eugenol], the “water solubility (in words)” value in series [2] is listed as “low water solubility”.

Regarding `COc1ccc([C@@H]2CC(=O)c3c(O)cc(O[C@@H]4O[C@H](CO[C@@H]5O[C@@H](C)[C@H](O)[C@@H](O)[C@H]5O)[C@@H](O)[C@H](O)[C@H]4O)cc3O2)cc1O` [Hesperidin], the “water solubility (in words)” value in series [2] is on record as “low water solubility”.

Take `Cc1cc(O)c2c(=O)c3c(O)cc(O)c4c5c(O)cc(O)c6c(=O)c7c(O)cc(C)c8c1c2c(c34)c(c78)c65` [Hypericin]: in series [2], the “water solubility (in words)” value is “insoluble in water”.

In the case of `C=CC(C)(O)CCC=C(C)C` (stereo not shown) [Linalool], the “water solubility (in words)” value in series [2] was “low water solubility”.

Regarding `C[C@@H]1O[C@@H](O[C@H]2[C@H](Oc3cc(O)c4c(c3)O[C@H](c3ccc(O)cc3)CC4=O)O[C@H](CO)[C@@H](O)[C@@H]2O)[C@H](O)[C@H](O)[C@H]1O` [Naringin], in series [2], the “water solubility (in words)” value is listed as “low water solubility”.

As for `C[C@@H]1O[C@@H](Oc2c(-c3ccc(O)c(O)c3)oc3cc(O)cc(O)c3c2=O)[C@H](O)[C@H](O)[C@H]1O` [Quercitrin], the “water solubility (in words)” value in series [2] is listed as “low water solubility”.

Take `COC(=O)[C@H]1[C@H]2C[C@@H]3c4[nH]c5cc(OC)ccc5c4CCN3C[C@H]2C[C@@H](OC(=O)c2cc(OC)c(OC)c(OC)c2)[C@@H]1OC` [Reserpine]: in series [2], the “water solubility (in words)” value is on record as “low water solubility”.

Consider `Oc1ccc(C=Cc2cc(O)cc(O)c2)cc1` [Resveratrol], for which the aqueous solubility in series [2] is 0.03 mg/mL (≈ 131 µM).

With `C[C@@H]1O[C@@H](OC[C@H]2O[C@@H](Oc3c(-c4ccc(O)c(O)c4)oc4cc(O)cc(O)c4c3=O)[C@H](O)[C@@H](O)[C@@H]2O)[C@H](O)[C@H](O)[C@H]1O` [Rutin], the “water solubility (in words)” value in series [2] is “low water solubility”.

On to `O=C([O-])CCCCCCCNC(=O)c1ccccc1O.[Na+]` [SNAC, sodium N-[8-(2-hydroxybenzoyl)amino] caprylate], for which the “effect of the absorption enhancer on the duration of action of cannabis” value with study participants [3] and with study participants [4] was “no effect on the duration of action of cannabis” each time.

On to `CCCCCc1cc(O)c2c(c1)OC(C)(C)[C@@H]1CCC(C)=C[C@@H]21` [THC, delta-9-tetrahydrocannabinol], for which the “Cmax increase over cannabis alone” value in series [1] (setting [6]) was 1.4 fold. Further, the “AUC compared to the cannabis alone group” value in series [1] (250 mg/kg SNAC group) was found to be 1.1 fold. In series [1] (500 mg/kg SNAC group), the “AUC compared to the cannabis alone group” value is listed as “lower”. In addition, the “AUC compared to the cannabis alone group” value in series [1] (both SNAC groups (250 and 500 mg/kg)) was “comparable”. In addition, in series [1], the “AUC0-Tlast increase over the cannabis alone group” value was found to be 6.3 fold and the “Cmax increase over the cannabis alone group” value stood at 6.9 fold. Further, in series [5] (after oral administration), the “duration of action / effects” value is 4 to 6 h, the onset of action result is “up to 1.5 hours” and the peak effect at is 2 to 4 h. Also, the absorbed in series [5] (after single oral doses) was 90-95%. Moreover, in series [5] (oral, first pass hepatic metabolism and poor aqueous solubility), the “administered dose that reaches the systemic circulation” value is recorded as 4-20%.

`CC[C@]1(O)C[C@@H]2CN(CCc3c([nH]c4ccccc34)[C@@](C(=O)OC)(c3cc4c(cc3OC)N(C)[C@H]3[C@@](O)(C(=O)OC)[C@H](OC(C)=O)[C@]5(CC)C=CCN6CC[C@]43[C@@H]65)C2)C1` [Vinblastine]: the “water solubility (in words)” value in series [2] is reported as “low water solubility”.
